Results as given in ChEMBL document CHEMBL5678818, “Discovery of potent SOS1 inhibitors that block RAS activation via disruption of the RAS-SOS1 interaction” (Proc Natl Acad Sci U S A, 2019).
pIC50: −log10 of the molar value.

Tests used:
[1] = test system: Tyrosine-protein kinase ABL1 (Homo sapiens), P00519 [F317L]; test: Inhibition of phosphorylated ABL1 F317L mutant (unknown origin) assessed as residual activity at 100 nM by KINOMEscan analysis relative to control
[2] = biological target: Vascular endothelial growth factor receptor 3 (Homo sapiens) (UniProt P35916); test: Inhibition of FLT4 (unknown origin) assessed as residual activity at 100 nM by KINOMEscan analysis relative to control
[3] = biological target: Casein kinase I isoform alpha (Homo sapiens) (UniProt P48729); test: Inhibition of CSNK1A1 (unknown origin) assessed as residual activity at 100 nM by KINOMEscan analysis relative to control
GTPase KRas/RAF1 = GTPase KRas/RAF1 (Homo sapiens, UniProt P01116+P04049); test: Inhibition of N-terminal His10-tagged wild-type recombinant human KRAS (1 to 169 residues) expressed in Escherichia coli/N-terminal GST-tagged recombinant human CRAF RBD (51 to 131 residues) expressed in Escherichia coli protein-protein interaction preincubated for 30 mins with KRAS followed by CRAF RBD addition measured after 60 mins in presence of anti-6His-XL665/GTP by HTRF analysis
[4] = test system: ALK tyrosine kinase receptor (Homo sapiens), Q9UM73 [L1196M]; test: Inhibition of ALK L1196M mutant (unknown origin) assessed as residual activity at 100 nM by KINOMEscan analysis relative to control
[5] = biological target: Receptor-type tyrosine-protein kinase FLT3 (Homo sapiens) (UniProt P36888); test: Inhibition of autoinhibited FLT3 (unknown origin) assessed as residual activity at 100 nM by KINOMEscan analysis relative to control
[6] = biological target: T1, Serine/threonine-protein kinase TAO2 (Homo sapiens) (UniProt Q9UL54); test: Inhibition of TAOK2 (unknown origin) assessed as residual activity at 100 nM by KINOMEscan analysis relative to control
T1 sequence (whole entry): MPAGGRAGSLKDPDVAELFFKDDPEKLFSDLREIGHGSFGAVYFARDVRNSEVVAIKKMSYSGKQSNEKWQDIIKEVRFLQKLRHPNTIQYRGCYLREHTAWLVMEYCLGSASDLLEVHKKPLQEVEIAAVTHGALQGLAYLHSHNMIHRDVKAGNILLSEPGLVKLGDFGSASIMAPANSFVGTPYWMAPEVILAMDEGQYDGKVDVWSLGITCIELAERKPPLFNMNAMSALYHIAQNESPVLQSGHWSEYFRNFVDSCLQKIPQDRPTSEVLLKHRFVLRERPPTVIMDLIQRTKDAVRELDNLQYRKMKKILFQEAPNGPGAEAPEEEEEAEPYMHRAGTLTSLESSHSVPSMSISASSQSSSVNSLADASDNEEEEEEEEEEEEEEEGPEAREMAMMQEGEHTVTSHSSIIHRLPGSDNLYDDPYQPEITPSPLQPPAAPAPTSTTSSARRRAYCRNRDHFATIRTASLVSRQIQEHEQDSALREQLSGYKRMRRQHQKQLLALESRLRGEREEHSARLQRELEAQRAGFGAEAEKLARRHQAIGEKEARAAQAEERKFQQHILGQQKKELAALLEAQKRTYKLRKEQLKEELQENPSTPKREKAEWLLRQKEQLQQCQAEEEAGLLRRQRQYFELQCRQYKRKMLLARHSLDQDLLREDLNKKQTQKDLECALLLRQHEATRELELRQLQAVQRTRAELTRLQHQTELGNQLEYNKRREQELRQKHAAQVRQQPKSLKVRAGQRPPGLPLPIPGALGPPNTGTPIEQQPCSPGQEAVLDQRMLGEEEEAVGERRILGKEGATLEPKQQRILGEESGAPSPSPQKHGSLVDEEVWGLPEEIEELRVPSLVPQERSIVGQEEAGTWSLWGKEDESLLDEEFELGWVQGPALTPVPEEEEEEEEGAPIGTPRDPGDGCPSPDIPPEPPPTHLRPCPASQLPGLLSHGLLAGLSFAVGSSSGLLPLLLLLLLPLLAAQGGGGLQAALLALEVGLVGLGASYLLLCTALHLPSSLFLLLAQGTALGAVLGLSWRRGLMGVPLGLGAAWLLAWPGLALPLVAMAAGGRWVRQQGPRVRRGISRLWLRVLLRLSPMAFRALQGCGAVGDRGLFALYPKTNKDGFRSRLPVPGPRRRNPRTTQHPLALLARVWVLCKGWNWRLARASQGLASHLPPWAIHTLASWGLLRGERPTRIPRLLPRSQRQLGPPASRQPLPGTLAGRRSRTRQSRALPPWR

[7] = biological target: Homeodomain-interacting protein kinase 3 (Homo sapiens) (UniProt Q9H422); test: Inhibition of HIPK3 (unknown origin) assessed as residual activity at 100 nM by KINOMEscan analysis relative to control
[8] = biological target: Epithelial discoidin domain-containing receptor 1 (Homo sapiens) (UniProt Q08345); test: Inhibition of DDR1 (unknown origin) assessed as residual activity at 100 nM by KINOMEscan analysis relative to control
[9] = biological target: Leucine-rich repeat serine/threonine-protein kinase 2 (Homo sapiens) (UniProt Q5S007); test: Inhibition of LRRK2 (unknown origin) assessed as residual activity at 100 nM by KINOMEscan analysis relative to control
[10] = biological target: Dual specificity mitogen-activated protein kinase kinase 1 (Homo sapiens) (UniProt Q02750); test: Inhibition of MEK1 (unknown origin) assessed as residual activity at 100 nM by KINOMEscan analysis relative to control
[11] = biological target: T2, Serine/threonine-protein kinase RIO3 (Homo sapiens) (UniProt O14730); test: Inhibition of RIOK3 (unknown origin) assessed as residual activity at 100 nM by KINOMEscan analysis relative to control
T2 sequence (whole entry): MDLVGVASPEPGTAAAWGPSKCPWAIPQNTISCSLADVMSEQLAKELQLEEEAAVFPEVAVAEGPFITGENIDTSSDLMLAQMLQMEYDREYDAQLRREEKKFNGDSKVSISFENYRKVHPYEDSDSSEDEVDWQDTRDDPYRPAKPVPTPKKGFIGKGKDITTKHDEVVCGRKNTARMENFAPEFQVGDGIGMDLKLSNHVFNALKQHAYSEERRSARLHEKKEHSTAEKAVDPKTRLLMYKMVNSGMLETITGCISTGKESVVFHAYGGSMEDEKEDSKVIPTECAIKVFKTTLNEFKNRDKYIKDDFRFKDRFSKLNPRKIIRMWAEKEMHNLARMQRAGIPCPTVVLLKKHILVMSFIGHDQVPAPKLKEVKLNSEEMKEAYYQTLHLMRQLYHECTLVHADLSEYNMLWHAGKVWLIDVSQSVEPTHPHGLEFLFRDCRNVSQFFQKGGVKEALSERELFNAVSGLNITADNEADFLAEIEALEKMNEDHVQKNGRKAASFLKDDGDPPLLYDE

[12] = biological target: Serine/threonine-protein kinase SIK1 (Homo sapiens) (UniProt P57059); test: Inhibition of SIK (unknown origin) assessed as residual activity at 100 nM by KINOMEscan analysis relative to control

Structure (SMILES): COc1cc2ncnc(N[C@H](C)c3cccc4ccccc34)c2cc1OC
- Activity [1]: 86%
- Activity [2]: 92%
- Activity [3]: 93%
- pIC50 (GTPase KRas/RAF1): < 4.70
- Activity [4]: 66%
- Activity [5]: 88%
- Activity [6]: 94%
- Activity [7]: 88%
- Activity [8]: 100%
- Activity [9]: 82%
- Activity [10]: 98%
- Activity [11]: 75%
- Activity [12]: 85%
